Assay results taken from PubChem BioAssay (NCI).
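Growth conditions: 96-well plates. Treatment: test compound, 48 hours, 5 concentrations. Analysis: linear interpolation between bracketing concentrations; unreached endpoints set to highest concentration. GI50: concentration for 50% inhibition of growth. TGI is the concentration that stops growth completely.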

Key:
Experiment in all cases: DTP human tumour cell line panel, 48 h
[1] = test system: 786-0 renal
[2] = test system: A498 renal
[3] = test system: A549 NSCLC
[4] = test system: ACHN renal
[5] = test system: BT-549 breast
[6] = test system: CAKI-1 renal
[7] = test system: CCRF-CEM leukemia
[8] = test system: COLO 205 colon
[9] = test system: DU-145 prostate
[10] = test system: EKVX NSCLC
[11] = test system: HCC-2998 colon
[12] = test system: HCT-116 colon
[13] = test system: HCT-15 colon
[14] = test system: HL-60(TB) leukemia
[15] = test system: HOP-62 NSCLC
[16] = test system: HOP-92 NSCLC
[17] = test system: HS 578T breast
[18] = test system: HT29 colon
[19] = test system: IGROV1 ovarian
[20] = test system: K-562 leukemia
[21] = test system: KM12 colon
[22] = test system: LOX IMVI melanoma
[23] = test system: M14 melanoma
[24] = test system: MALME-3M melanoma
[25] = test system: MCF7 breast
[26] = test system: MDA-MB-231 breast
[27] = test system: MDA-MB-435
[28] = test system: MOLT-4 leukemia
[29] = test system: NCI-H226 lung
[30] = test system: NCI-H23 lung
[31] = test system: NCI-H460 lung
[32] = test system: NCI-H522 lung
[33] = test system: NCI/ADR-RES ovarian
[34] = test system: OVCAR-3 ovarian
[35] = test system: OVCAR-4 ovarian
[36] = test system: OVCAR-5 ovarian
[37] = test system: OVCAR-8 ovarian
[38] = test system: PC-3 prostate
[39] = test system: RPMI-8226 leukemia
[40] = test system: RXF 393 renal
[41] = test system: SF-268 CNS
[42] = test system: SF-295 CNS
[43] = test system: SF-539 CNS
[44] = test system: SK-MEL-2 melanoma
[45] = test system: SK-MEL-28 melanoma
[46] = test system: SK-MEL-5 melanoma
[47] = test system: SK-OV-3 ovarian
[48] = test system: SN12C renal
[49] = test system: SNB-19 CNS
[50] = test system: SW-620 colon
[51] = test system: T-47D breast
[52] = test system: TK-10 renal
[53] = test system: U251 CNS
[54] = test system: UACC-257 melanoma
[55] = test system: UACC-62 melanoma
[56] = test system: UO-31 renal
[57] = test system: SNB-75 CNS

COc1cc(/C=C/c2cc(/C=C/c3ccc(O)c(OC)c3)n(-c3c(Cl)cccc3Cl)c(=O)n2)ccc1O
GI50 [1]: 2.74 µM | TGI [1]: 8.51 µM | GI50 [2]: 3.79 µM | TGI [2]: 13.2 µM | GI50 [3]: 4.03 µM | TGI [3]: 15 µM | GI50 [4]: 2.84 µM | TGI [4]: 12.7 µM | GI50 [5]: 2.07 µM | TGI [5]: 6.67 µM | GI50 [6]: 14.6 µM | TGI [6]: 30 µM | GI50 [7]: 3.21 µM | TGI [7]: 70.6 µM | GI50 [8]: 2.84 µM | TGI [8]: 8.95 µM | GI50 [9]: 3.48 µM | TGI [9]: 13 µM | GI50 [10]: 3.26 µM | TGI [10]: 14.8 µM | GI50 [11]: 1.83 µM | TGI [11]: 3.53 µM | GI50 [12]: 1.31 µM | TGI [12]: 5.25 µM | GI50 [13]: 2.44 µM | TGI [13]: 9.66 µM | GI50 [14]: 2.64 µM | TGI [14]: 14.4 µM | GI50 [15]: 3.41 µM | TGI [15]: 12.8 µM | GI50 [16]: 4.22 µM | TGI [16]: 16.4 µM | GI50 [17]: 5.48 µM | TGI [17]: > 100 µM | GI50 [18]: 1.77 µM | TGI [18]: 3.36 µM | GI50 [19]: 3.01 µM | TGI [19]: 12.3 µM | GI50 [20]: 3.11 µM | TGI [20]: > 100 µM | GI50 [21]: 2.02 µM | TGI [21]: 5.27 µM | GI50 [22]: 1.68 µM | TGI [22]: 3.57 µM | GI50 [23]: 2.38 µM | TGI [23]: 6.87 µM | GI50 [24]: 3.88 µM | TGI [24]: 15.7 µM | GI50 [25]: 2 µM | TGI [25]: 11 µM | GI50 [26]: 3.65 µM | TGI [26]: 15.1 µM | GI50 [27]: 1.63 µM | TGI [27]: 5.98 µM | GI50 [28]: 3.38 µM | TGI [28]: 22.6 µM | GI50 [29]: 3.27 µM | TGI [29]: 9.44 µM | GI50 [30]: 2.38 µM | TGI [30]: 6.68 µM | GI50 [31]: 3.39 µM | TGI [31]: 11.8 µM | GI50 [32]: 1.55 µM | TGI [32]: 3.23 µM | GI50 [33]: 3.53 µM | TGI [33]: 22 µM | GI50 [34]: 3.19 µM | TGI [34]: 12.1 µM | GI50 [35]: 4.61 µM | TGI [35]: 16.9 µM | GI50 [36]: 2.76 µM | TGI [36]: 11 µM | GI50 [37]: 3.34 µM | TGI [37]: 10.5 µM | GI50 [38]: 4.68 µM | TGI [38]: 25.3 µM | GI50 [39]: 2.96 µM | TGI [39]: 22.7 µM | GI50 [40]: 2.18 µM | TGI [40]: 4.92 µM | GI50 [41]: 3.12 µM | TGI [41]: 13.7 µM | GI50 [42]: 2.87 µM | TGI [42]: 9.52 µM | GI50 [43]: 2.18 µM | TGI [43]: 6.92 µM | GI50 [44]: 3.3 µM | TGI [44]: 12.9 µM | GI50 [45]: 2.74 µM | TGI [45]: 10.1 µM | GI50 [46]: 2.18 µM | TGI [46]: 4.86 µM | GI50 [47]: 2.78 µM | TGI [47]: 10.6 µM | GI50 [48]: 4.82 µM | TGI [48]: 19.5 µM | GI50 [49]: 3.54 µM | TGI [49]: 13.2 µM | GI50 [50]: 3.11 µM | TGI [50]: 10.5 µM | GI50 [51]: 3.44 µM | TGI [51]: 22.7 µM | GI50 [52]: 2.91 µM | TGI [52]: 10.1 µM | GI50 [53]: 2.37 µM | TGI [53]: 6.36 µM | GI50 [54]: 3.32 µM | TGI [54]: 11.3 µM | GI50 [55]: 2.59 µM | TGI [55]: 7.42 µM | GI50 [56]: 2.74 µM | TGI [56]: 12.3 µM

O=C(c1ccc(Cl)cc1)c1no[n+]([O-])c1C(=O)c1ccc(Cl)cc1
GI50 [1]: 3.97 µM | TGI [1]: 13.7 µM | GI50 [2]: 16.4 µM | TGI [2]: 36.4 µM | GI50 [3]: 23.5 µM | TGI [3]: 62.1 µM | GI50 [4]: 5.69 µM | TGI [4]: 17.9 µM | GI50 [5]: 9.21 µM | TGI [5]: 22 µM | GI50 [6]: 4.58 µM | TGI [6]: 12.2 µM | GI50 [7]: 2 µM | TGI [7]: 4.75 µM | GI50 [8]: 14.6 µM | TGI [8]: 34.3 µM | GI50 [9]: 17 µM | TGI [9]: 31 µM | GI50 [11]: 21 µM | TGI [11]: 44.8 µM | GI50 [12]: 10.7 µM | TGI [12]: 27.4 µM | GI50 [13]: 12.6 µM | TGI [13]: 31 µM | GI50 [14]: 6.06 µM | TGI [14]: 20.7 µM | GI50 [15]: 28.5 µM | TGI [15]: > 74.7 µM | GI50 [16]: 1.77 µM | TGI [16]: 4.26 µM | GI50 [17]: 21.2 µM | TGI [17]: 68.2 µM | GI50 [18]: 11.2 µM | TGI [18]: 26.4 µM | GI50 [19]: 3.87 µM | TGI [19]: 10.3 µM | GI50 [20]: 5.32 µM | TGI [20]: 31.8 µM | GI50 [21]: 20.3 µM | TGI [21]: 45.6 µM | GI50 [22]: 1.79 µM | TGI [22]: 3.59 µM | GI50 [23]: 13.3 µM | TGI [23]: 27.2 µM | GI50 [24]: 2.18 µM | TGI [24]: 4.2 µM | GI50 [25]: 11.3 µM | TGI [25]: 31.7 µM | GI50 [26]: 10.9 µM | TGI [26]: 26.8 µM | GI50 [27]: 13.5 µM | TGI [27]: 26.8 µM | GI50 [28]: 4.73 µM | TGI [28]: 22.1 µM | GI50 [29]: 15.8 µM | TGI [29]: 31.1 µM | GI50 [30]: 16.5 µM | TGI [30]: 40.9 µM | GI50 [31]: 23.6 µM | TGI [31]: 63 µM | GI50 [32]: 1.74 µM | TGI [32]: 3.37 µM | GI50 [33]: 20.5 µM | TGI [33]: 49.8 µM | GI50 [34]: 6.6 µM | TGI [34]: 14.5 µM | GI50 [35]: 13.3 µM | TGI [35]: 27.5 µM | GI50 [36]: 16.5 µM | TGI [36]: 35.3 µM | GI50 [37]: 14.5 µM | TGI [37]: 33.8 µM | GI50 [38]: 8.76 µM | TGI [38]: 22 µM | GI50 [39]: 4.6 µM | TGI [39]: 24.4 µM | GI50 [40]: 11.5 µM | TGI [40]: 23.8 µM | GI50 [41]: 14.1 µM | TGI [41]: 33.2 µM | GI50 [42]: 14.3 µM | TGI [42]: 29 µM | GI50 [43]: 3.24 µM | TGI [43]: 8.17 µM | GI50 [44]: 14.9 µM | TGI [44]: 28.7 µM | GI50 [45]: 14.1 µM | TGI [45]: 27.8 µM | GI50 [46]: 15.9 µM | TGI [46]: 30.5 µM | GI50 [47]: 21 µM | TGI [47]: 42.9 µM | GI50 [48]: 13 µM | TGI [48]: 28.3 µM | GI50 [49]: 32.7 µM | TGI [49]: > 95.8 µM | GI50 [57]: 15 µM | TGI [57]: 29 µM | GI50 [50]: 11.8 µM | TGI [50]: 25.1 µM | GI50 [51]: 13.1 µM | TGI [51]: 43.1 µM | GI50 [52]: 15 µM | TGI [52]: 28.3 µM | GI50 [53]: 15.8 µM | TGI [53]: 30.2 µM | GI50 [54]: 14.5 µM | TGI [54]: 27.8 µM | GI50 [55]: 13.7 µM | TGI [55]: 27.3 µM | GI50 [56]: 1.64 µM | TGI [56]: 3.2 µM
